{
  "source": "patent US20030153009A1",
  "about": "“Method for influencing kinase activity with AG879” (priority 2002, published 2003)",
  "key": {"PAK1 [1]": {"system": "PAK1", "conditions": "cited from earlier work"}, "[2]": {"system": "RAS transformation of cells", "conditions": "in vitro and in vivo (b6); malignant transformation of cells (b7); cited from earlier work"}, "TEC": {"target": "T1, TEC (Homo sapiens, UniProt P42680)", "T1 sequence (P42680 1-631)": "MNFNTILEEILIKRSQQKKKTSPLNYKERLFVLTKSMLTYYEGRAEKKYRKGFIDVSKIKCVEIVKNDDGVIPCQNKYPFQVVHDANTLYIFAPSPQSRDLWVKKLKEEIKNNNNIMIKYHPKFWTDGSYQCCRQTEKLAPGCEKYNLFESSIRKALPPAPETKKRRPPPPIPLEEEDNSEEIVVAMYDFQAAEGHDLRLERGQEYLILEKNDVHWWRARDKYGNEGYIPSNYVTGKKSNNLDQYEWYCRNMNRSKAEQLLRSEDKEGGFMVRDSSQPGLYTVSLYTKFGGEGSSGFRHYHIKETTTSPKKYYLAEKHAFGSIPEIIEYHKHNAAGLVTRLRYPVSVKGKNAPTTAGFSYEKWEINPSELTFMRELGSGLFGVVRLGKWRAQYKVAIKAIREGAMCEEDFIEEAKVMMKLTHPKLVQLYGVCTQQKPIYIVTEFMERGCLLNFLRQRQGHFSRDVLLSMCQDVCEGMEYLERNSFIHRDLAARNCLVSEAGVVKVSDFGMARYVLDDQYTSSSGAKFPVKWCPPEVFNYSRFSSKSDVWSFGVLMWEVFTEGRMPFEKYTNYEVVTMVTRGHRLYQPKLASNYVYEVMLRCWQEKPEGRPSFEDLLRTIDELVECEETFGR", "experiment": "In vitro kinase assay, TEC family member TEC", "format": "biochemical", "conditions": "concentration as high as 10 μM"}, "[3]": {"system": "RAS cells (NIH 3T3 fibroblasts transformed with v-Ha-RAS)", "experiment": "Colony formation of RAS cells in 0.35% top agar, 3 weeks", "format": "cell-based", "conditions": "colonies containing more than 100 cells, average of two experiments, read-out: IC50 for large colony formation", "text": "After three weeks, the colonies were stained, and counted, using standard methods. The control used was non-treated cells, plated into the same type of medium."}, "FAK-ETK interaction": {"target": "T2, FAK-ETK interaction (Mus musculus, UniProt P97504)", "T2 construct": "blotted, using either anti-phospo Tyr, anti-ETK, or anti-PAK1 antibodies; endogenous in cells; host or cells: RAS cells (v-Ha-RAS transformed NIH 3T3 fibroblasts)", "T2 sequence (P97504 1-651)": "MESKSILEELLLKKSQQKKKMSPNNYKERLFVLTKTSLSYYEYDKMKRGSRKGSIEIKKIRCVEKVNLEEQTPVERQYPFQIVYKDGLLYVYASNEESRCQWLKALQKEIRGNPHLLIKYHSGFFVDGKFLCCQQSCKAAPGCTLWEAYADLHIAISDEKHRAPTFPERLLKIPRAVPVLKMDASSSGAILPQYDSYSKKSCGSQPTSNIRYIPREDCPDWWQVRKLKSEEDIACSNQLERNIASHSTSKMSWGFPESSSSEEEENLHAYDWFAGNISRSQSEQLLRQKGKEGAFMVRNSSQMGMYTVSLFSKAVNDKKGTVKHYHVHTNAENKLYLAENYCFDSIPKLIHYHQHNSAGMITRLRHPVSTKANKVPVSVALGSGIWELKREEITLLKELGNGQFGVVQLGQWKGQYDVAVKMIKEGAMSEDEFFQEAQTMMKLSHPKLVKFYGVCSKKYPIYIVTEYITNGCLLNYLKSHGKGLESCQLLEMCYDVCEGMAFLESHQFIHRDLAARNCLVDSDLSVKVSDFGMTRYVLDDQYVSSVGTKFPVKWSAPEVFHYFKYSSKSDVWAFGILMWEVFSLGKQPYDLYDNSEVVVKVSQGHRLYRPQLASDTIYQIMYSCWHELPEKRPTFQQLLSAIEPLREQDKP", "experiment": "FAK association with ETK in RAS cells", "format": "cell-based", "description": "(§1) In order to determine this, RAS cells were again serum starved, lysed, and immunoprecipitated using an anti-FAK antibody. The precipitates were then blotted, using either anti-phospo Tyr, anti-ETK, or anti-PAK1 antibodies, separately."}, "ErbB2": {"target": "ErbB2 (Homo sapiens, UniProt P04626)", "conditions": "cited from earlier work"}, "GST-PAK1": {"target": "GST-PAK1 (Homo sapiens, UniProt Q13153)", "sequence (Q13153 whole entry, the tested form may be a part)": "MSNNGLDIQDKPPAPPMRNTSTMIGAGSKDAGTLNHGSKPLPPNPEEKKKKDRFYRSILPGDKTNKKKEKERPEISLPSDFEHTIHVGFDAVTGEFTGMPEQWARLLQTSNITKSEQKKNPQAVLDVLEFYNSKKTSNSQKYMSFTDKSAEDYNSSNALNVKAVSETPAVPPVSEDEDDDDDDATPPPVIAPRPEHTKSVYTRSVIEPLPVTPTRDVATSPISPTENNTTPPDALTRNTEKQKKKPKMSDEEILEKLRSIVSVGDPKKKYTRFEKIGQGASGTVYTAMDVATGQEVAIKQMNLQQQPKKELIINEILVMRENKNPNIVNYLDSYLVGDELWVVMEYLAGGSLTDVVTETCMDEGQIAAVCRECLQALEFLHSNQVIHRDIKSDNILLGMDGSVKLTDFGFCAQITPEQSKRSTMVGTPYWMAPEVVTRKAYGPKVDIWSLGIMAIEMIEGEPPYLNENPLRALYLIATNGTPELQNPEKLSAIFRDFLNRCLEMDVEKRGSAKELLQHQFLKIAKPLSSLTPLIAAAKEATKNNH", "experiment": "Kinase assay with fusion protein GST-PAK1", "format": "biochemical", "conditions": "even at 10 μM", "protocol": "In follow up experiments a fusion protein “GST-PAK1” was prepared, and tested in the same way."}, "BTK": {"target": "BTK (Homo sapiens, UniProt Q06187)", "sequence (Q06187 whole entry, species assumed)": "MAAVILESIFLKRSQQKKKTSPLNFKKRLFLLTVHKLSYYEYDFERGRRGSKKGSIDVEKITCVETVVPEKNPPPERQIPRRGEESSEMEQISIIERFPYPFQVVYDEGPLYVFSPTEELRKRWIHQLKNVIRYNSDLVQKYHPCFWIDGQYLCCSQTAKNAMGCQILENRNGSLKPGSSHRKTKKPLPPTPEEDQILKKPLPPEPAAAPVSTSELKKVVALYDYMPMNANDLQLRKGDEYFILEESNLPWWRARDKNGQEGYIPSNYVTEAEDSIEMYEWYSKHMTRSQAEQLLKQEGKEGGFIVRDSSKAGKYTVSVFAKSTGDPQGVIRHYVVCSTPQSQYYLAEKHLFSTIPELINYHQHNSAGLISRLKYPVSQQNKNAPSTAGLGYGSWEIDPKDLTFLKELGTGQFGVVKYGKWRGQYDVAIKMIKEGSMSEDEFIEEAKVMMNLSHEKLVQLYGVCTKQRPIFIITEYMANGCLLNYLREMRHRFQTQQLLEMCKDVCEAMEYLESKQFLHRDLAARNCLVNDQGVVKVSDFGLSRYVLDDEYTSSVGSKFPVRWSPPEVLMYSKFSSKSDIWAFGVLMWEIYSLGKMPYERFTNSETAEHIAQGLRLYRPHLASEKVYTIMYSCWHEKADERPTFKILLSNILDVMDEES", "experiment": "In vitro kinase assay, TEC family member BTK", "format": "biochemical", "conditions": "concentration as high as 10 μM"}, "RAS induced sarcomas": {"system": "RAS induced sarcomas", "conditions": "nude mouse model; cited from earlier work"}, "FLK-1": {"system": "FLK-1", "conditions": "cited from earlier work"}, "FAK": {"target": "T3, FAK (Mus musculus, UniProt P34152)", "T3 construct": "RAS cells were again serum starved, lysed, and immunoprecipitated using an anti-FAK antibody; endogenous in cells; host or cells: RAS cells (v-Ha-RAS transformed NIH 3T3 fibroblasts)", "T3 sequence (P34152 whole entry)": "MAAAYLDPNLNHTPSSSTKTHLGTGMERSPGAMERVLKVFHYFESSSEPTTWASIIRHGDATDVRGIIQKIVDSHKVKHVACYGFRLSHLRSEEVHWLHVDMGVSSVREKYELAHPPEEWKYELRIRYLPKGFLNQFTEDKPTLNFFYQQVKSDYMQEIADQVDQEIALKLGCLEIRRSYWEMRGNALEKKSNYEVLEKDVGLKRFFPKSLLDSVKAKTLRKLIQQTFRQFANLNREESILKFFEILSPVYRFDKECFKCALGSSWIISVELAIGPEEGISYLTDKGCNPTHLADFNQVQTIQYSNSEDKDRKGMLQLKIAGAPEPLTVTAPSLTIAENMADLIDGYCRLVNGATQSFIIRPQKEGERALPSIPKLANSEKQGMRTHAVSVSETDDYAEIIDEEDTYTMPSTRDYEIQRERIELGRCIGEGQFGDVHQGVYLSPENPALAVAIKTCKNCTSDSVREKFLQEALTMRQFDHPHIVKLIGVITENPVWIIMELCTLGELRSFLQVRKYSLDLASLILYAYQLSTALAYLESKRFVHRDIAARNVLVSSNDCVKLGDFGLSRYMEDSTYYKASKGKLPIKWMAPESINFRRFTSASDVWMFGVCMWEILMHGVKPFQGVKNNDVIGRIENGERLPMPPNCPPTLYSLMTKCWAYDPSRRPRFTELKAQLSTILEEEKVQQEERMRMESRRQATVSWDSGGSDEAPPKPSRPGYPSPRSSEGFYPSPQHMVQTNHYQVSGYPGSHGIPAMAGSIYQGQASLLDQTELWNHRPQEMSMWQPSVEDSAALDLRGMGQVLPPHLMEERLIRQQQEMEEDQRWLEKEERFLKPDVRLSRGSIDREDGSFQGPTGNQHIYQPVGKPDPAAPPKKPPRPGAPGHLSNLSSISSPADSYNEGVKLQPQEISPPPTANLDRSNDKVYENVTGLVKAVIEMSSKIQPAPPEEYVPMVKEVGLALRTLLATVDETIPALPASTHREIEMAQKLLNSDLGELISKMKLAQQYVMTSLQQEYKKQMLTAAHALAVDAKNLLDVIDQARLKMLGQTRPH", "experiment": "Tyr phosphorylation of FAK in RAS cells (anti-FAK immunoprecipitation, blot)", "format": "cell-based", "description": "as §1"}, "PAK1 [4]": {"system": "PAK1", "experiment": "PAK kinase assay on PAK1 immunoprecipitated from AG879-treated RAS cells", "format": "cell-based", "conditions": "RAS cells serum starved, AG879 0.01-10 μM for 1 hour; all concentrations tested", "experimental": "RAS cells, which are NIH 3T3 fibroblasts transformed with v-Ha-RAS, were serum starved, overnight, and were then incubated with varying concentrations of AG879 (0.01-10 μM), for 1 hour. Following the hour of culture, the cells were lysed in lysis buffer (40 mM HEPES, pH 7.4, 1% Nonidet P-40, 1 mM EDTA, 100 mM NaCl, 25 mM NaF, 100 μM NaVO3, 1 MM phenylmethyl sulfonyl fluoride, and 100 units/ml aprotonin). Lysates were tested, via Bradford assay, to determine protein content, and those containing 1 mg of protein were admixed with an anti-PAK1 antibody to immunoprecipitate proteins.\nOnce the proteins were immunoprecipitated, they were analyzed in a PAK kinase assay, as described by Tang, et. al., Mol. Cell Biol 17: 4454-4464 (1997); He, et. al., Cancer J. 7:191-202 (2001), He, et. al., Cancer J 6:243-248 (2000); Obemeier, et. al., EMBO J 17:4328-4339 (1998), all of which are incorporated by reference."}, "RAS cells": {"system": "RAS cells", "experiment": "Anchorage dependent growth, follow up experiments", "format": "cell-based", "conditions": "as much as 1 μM", "description": "The experiments which follow were designed to address this question."}, "ETK [5]": {"target": "T4, ETK (Mus musculus, UniProt P97504)", "T4 sequence (P97504 1-651)": "T2 sequence (P97504 1-651)", "experiment": "Tyrosine phosphorylation of ETK in AG879-treated RAS cells (immunoprecipitation)", "format": "cell-based", "set-up": "endogenous in cells; host or cells: RAS cells (v-Ha-RAS transformed NIH 3T3 fibroblasts)", "conditions": "1 hour", "protocol": "(§2) Experiments were designed to determine if AG879 affected the Tyr activity of ETK. To do so, serum starved RAS cells were treated, with varying concentrations of AG879 for 1 hour. Cell lysates were prepared using, as lysis buffer, 20 mM Tris-HCl (pH 7.5), 100 mM NaCl, 10% glycerol, 1% Nonidet P-40, 10 mM NaF, 100 μM NaVO3, 1 mM phenylmethylsulfonyl fluoride, and 100 units/ml of aprotonin. Lysates were treated either with a rabbit, anti-ETK antibody, as an anti-phospo Tyr antibody, to immunoprecipitate the enzyme, and an ETK kinase assay was performed, in accordance with Chen, et. al., Nat. Cell Biol. 3:439-444 (2001); and Bagheri-Yarmand, et. al., supra, both of which are incorporated by reference. Endogenous PAK1, associated with ETK was used as a substrate, in either the absence, or varying concentrations of AG879."}, "ITK": {"target": "T5, ITK (Homo sapiens, UniProt Q08881)", "T5 sequence (Q08881 1-620)": "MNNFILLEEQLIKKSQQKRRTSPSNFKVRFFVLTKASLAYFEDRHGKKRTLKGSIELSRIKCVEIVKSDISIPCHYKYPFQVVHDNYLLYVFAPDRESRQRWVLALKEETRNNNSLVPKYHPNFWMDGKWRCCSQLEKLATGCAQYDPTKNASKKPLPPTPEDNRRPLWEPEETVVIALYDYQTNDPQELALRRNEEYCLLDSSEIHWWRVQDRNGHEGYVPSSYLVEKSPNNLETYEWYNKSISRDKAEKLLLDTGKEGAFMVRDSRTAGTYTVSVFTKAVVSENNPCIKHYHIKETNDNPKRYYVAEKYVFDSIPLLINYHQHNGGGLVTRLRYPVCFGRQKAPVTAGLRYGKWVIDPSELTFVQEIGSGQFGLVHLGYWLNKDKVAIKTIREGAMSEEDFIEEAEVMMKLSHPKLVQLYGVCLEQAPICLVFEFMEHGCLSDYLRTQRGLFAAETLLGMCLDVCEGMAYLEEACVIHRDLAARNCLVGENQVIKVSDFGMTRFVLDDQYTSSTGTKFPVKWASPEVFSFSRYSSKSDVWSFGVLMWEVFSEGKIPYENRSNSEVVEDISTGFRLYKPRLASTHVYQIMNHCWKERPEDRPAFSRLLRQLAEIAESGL", "experiment": "In vitro kinase assay, TEC family member ITK", "format": "biochemical", "conditions": "concentration as high as 10 μM"}, "PAK1 [6]": {"system": "PAK1", "experiment": "Tyr phosphorylation of PAK1 in AG879-treated RAS cells", "format": "cell-based", "conditions": "10 nM", "protocol": "as §2"}, "ETK [7]": {"target": "T4, ETK", "experiment": "In vitro kinase assay with ETK immunoprecipitated from RAS cells", "format": "biochemical", "set-up": "RAS cells were again lysed and immunoprecipitated with an anti-ETK antibody; endogenous in cells; host or cells: RAS cells (v-Ha-RAS transformed NIH 3T3 fibroblasts)", "protocol": "These experiments were designed to determined how AG879 inhibited ETK activity, i.e., was the inhibition direct, or indirect? To test this, RAS cells were again lysed and immunoprecipitated with an anti-ETK antibody, as described supra. Following this, the immunoprecipitates were used in an in vitro kinase assay, using no, or varying concentrations, of AG879 (0.001-10 μM), as described supra. Two, independent experiments, were carried out."}, "ETK-PAK1 association": {"target": "T6, ETK-PAK1 association (Mus musculus, UniProt P97504)", "T6 construct": "RAS cells were again lysed and immunoprecipitated with an anti-ETK antibody; endogenous in cells; host or cells: RAS cells (v-Ha-RAS transformed NIH 3T3 fibroblasts)", "T6 sequence (P97504 1-651)": "T2 sequence (P97504 1-651)", "experiment": "ETK-PAK1 association in AG879-treated RAS cells", "format": "cell-based", "conditions": "10 nM", "protocol": "as §2"}, "FAK-PAK1 interaction": {"system": "FAK-PAK1 interaction", "experiment": "FAK-PAK1 interaction in RAS cells", "format": "cell-based", "conditions": "10 nM", "description": "as §1"}},
  "data": [
    {"compound": "Cc1ccc(-c2nn(C(C)(C)C)c3ncnc(N)c23)cc1", "note": "[PP1]", "values": [
      {"measurement": "RAS induced PAK1 activation", "setting": "PAK1 [1]", "value": "block"},
      {"measurement": "RAS induced transformation", "setting": "[2]", "value": "block"}
    ]},
    {"compound": "COc1cc(/C=C(\\C#N)C(N)=O)cc(CSc2nc3ccccc3s2)c1O", "note": "[AG825]", "values": [
      {"measurement": "RAS induced PAK1 activation", "setting": "PAK1 [1]", "value": "block"},
      {"measurement": "IC50", "setting": "PAK1 [1]; read-out: IC50, block of RAS induced activation of PAK1 and malignant transformation", "value": "~0.35", "unit": "µM"},
      {"measurement": "RAS induced transformation", "setting": "[2]", "value": "block"}
    ]},
    {"compound": "COc1cc2ncnc(Nc3cccc(Cl)c3)c2cc1OC", "note": "[AG1478]", "values": [
      {"measurement": "RAS induced PAK1 activation", "setting": "PAK1 [1]", "value": "block"},
      {"measurement": "RAS induced transformation", "setting": "[2]", "value": "block"}
    ]},
    {"compound": "AG879", "values": [
      {"measurement": "inhibitory effect on TEC", "setting": "TEC", "value": "no inhibitory effect"},
      {"measurement": "IC50", "setting": "[3]", "value": "~0.01", "unit": "µM"},
      {"measurement": "FAK association with ETK", "setting": "FAK-ETK interaction; 10 nM", "value": "not at the lower concentration"},
      {"measurement": "FAK association with ETK", "setting": "FAK-ETK interaction; 100 nM", "value": "suppressed"},
      {"measurement": "ErbB2 inhibition", "setting": "ErbB2", "value": "inhibitor"},
      {"measurement": "inhibition of kinase properties of GST-PAK1", "setting": "GST-PAK1", "value": "did not inhibit"},
      {"measurement": "inhibitory effect on BTK", "setting": "BTK", "value": "no inhibitory effect"},
      {"measurement": "growth of RAS induced sarcomas in vivo", "setting": "RAS induced sarcomas", "value": "suppressed"},
      {"measurement": "FLK-1 inhibition", "setting": "FLK-1", "value": "inhibitor"},
      {"measurement": "Tyr phosphorylation of FAK", "setting": "FAK; 10 nM", "value": "not at the lower concentration"},
      {"measurement": "Tyr phosphorylation of FAK", "setting": "FAK; 100 nM", "value": "suppressed"},
      {"measurement": "PAK1 kinase activity", "setting": "PAK1 [4]", "value": "blocked quite strongly"},
      {"measurement": "effect on anchorage dependent growth", "setting": "RAS cells", "value": "did not effect"},
      {"measurement": "tyrosine phosphorylation of ETK", "setting": "ETK [5]; 10 nM", "value": "inhibited"},
      {"measurement": "level of the ETK protein", "setting": "ETK [5]", "value": "did not affect"},
      {"measurement": "inhibitory effect on ITK", "setting": "ITK", "value": "no inhibitory effect"},
      {"measurement": "Tyr phosphorylation of PAK1", "setting": "PAK1 [6]", "value": "reduced"},
      {"measurement": "Tyr phosphorylation of ETK", "setting": "ETK [7]; 10 nM, ETK immunoprecipitate", "value": "inhibited"},
      {"measurement": "Tyr phosphorylation of PAK1 by ETK", "setting": "ETK [7]; 10 nM, ETK immunoprecipitate", "value": "inhibited"},
      {"measurement": "IC50", "setting": "ETK [7]; AG879 0.001-10 μM, two independent experiments", "value": "~0.005", "unit": "µM"},
      {"measurement": "ETK-PAK1 association", "setting": "ETK-PAK1 association", "value": "suppress"},
      {"measurement": "FAK-PAK1 interaction", "setting": "FAK-PAK1 interaction", "value": "inhibit"}
    ]}
  ]
}
